Measured values: patent publication US5935982A, “Methods of treating retroviral infection and compounds useful therefor” (The University of North Carolina at Chapel Hill, priority 1997, dated 1999)

Tests used:
in vitro = format: cell-based; settings: human, cem and magic cells
Procedure: (§1) Cell lines used were CEM cells, a human T-cell lymphona cell line, A. Kaplan et al, J. Virol. 67:4050-5 (1993), and Magic cells, J. Kimpton et al, J. Virol. 66:2232 (1992). The CEM cells were grown in RPMI-1640 medium supplemented with 5% FCS. The Magic Cells, a HELA derivative, were grown in DMEM/H supplemented with 5% FCS, G418 (20 mg/ml) and Hygromycin (10 mg/ml). The HIV isolate was strain HXB2, originally from Lee Ratner in the laboratory of Robert Gallo at the National Institutes of Health.
Three different toxicity tests were performed on the cell lines used to measure virus infectivity.
The initial test for toxicity utilized the XTT Assay as described by Weislow et al, J. Natl. Cancer Inst. 81:577 (1989). This is the standard assay used originally to measure cell toxicity by potential reverse transcriptase inhibitors. Briefly, cells were grown to cells/ml and drug dilutions were added to the medium. After two days incubation, XTT reagent is added and incubation is continued for 4 hours at 37° C. Following incubation, the plates are read at 450 minus 650 nm (the 650 value is the backround value which is automatically subtracted) with controls of media+XTT reagent without cells, and cells+media without reagent. Also a control of cells+media+XTT reagent was run for each plate. Medium without phenol red was employed to minimize background color as the XTT reagent goes from colorless (unreduced) to orange (reduced). The XTT reagent was freshly prepared on the day of assay as follows: 1 mg/ml of XTT in 0.01M phenazine methosulfate. The phenazine methosulfate solution was prepared ahead of time and stored at 4° C. in a dark bottle. The XTT reagent is added to the microtiter wells at 24 ul per 100 ul of medium. The O.D. was measured on a Vmax plate reader from Molecular Devices Co. with data reduction. Results are expressed as percent of untreated controls. The least toxic compounds were Compounds A, B, and F with toxicities values at 500 μM or greater.
Next, a plating efficiency test measured the ability of the cell to grow after incubation with drug for a number of days. Magic cells were grown from an initial cell concentration of 0.8×104 with or without various concentrations of test compound for 6 days. Plating ability of the cells was assessed by plating dilutions of each culture on plastic. Colony forming units were determined after growth for two to four days by counting colonies after staining the plates. Each sample was plated in duplicate and the colony number averaged.
The third test for cell toxicity assessed growth rate in the presence of the test compound versus a control culture. Magic cells were grown over a period of 15 days with or without various dilutions of test compound. Aliquots were removed every other day and the cells were counted in a hemocytometer.

HIV-1 integrase = molecular target: T1, HIV-1 integrase (Human immunodeficiency virus type 1 group M subtype B, UniProt P04585); experiment: Integrase inhibition assay (site-specific cleavage/joining of labeled oligonucleotide substrate); format: biochemical, HIV-1 (HXB2 clone); settings: initial screening at 10 μM; assay in duplicate
T1 construct: using the integrase coding domain from the HXB2 clone; made in house; host or cells: E. coli
Procedure: Purification of Integrase Protein. Integrase was overproduced in E. coli from an inducible plasmid containing the integrase sequence under control of a lacI-regulated T7 polymerase using the integrase coding domain from the HXB2 clone of HIV-1 DNA (L. Ratner et al, AIDS Res. Hum. Retroviruses 3:57 (1987)), pT7fl1-IN. A one liter culture at an O.D. of 0.6 was induced by the addition of IPTG to 0.5 mM. After three hours, the cells were harvested by centrifugation and the pellets were stored at -70° C.
The integrase protein was purified by a modification of the method of Sherman and Fyfe, Proc. Natl. Acad. Sci. USA 87:5119 (1990). The cells were lysed by thawing in a buffer (50 mM Tris-HCl pH 7.5, 5 mM dithiothreitol, 1 mM EDTA, 1 mg/ml lysozyme) on ice at 6 ml/g bacterial pellet for 30 minutes, and then incubating at 37° C. for 5 minutes. The lysate was centrifuged at 12,000×g for one hour. The pellets were resuspended in 50 mM Tris-HCl, pH 7.5, 1 mM dithiothreitol, 1 mM EDTA, 1M NaCl (4 ml/g original bacteria). The homogenate was stirred for 30 minutes at 4° C. and recentrifuged for 30 minutes at 12,000×g.
The supernatant was made 0.8M in ammonium sulfate by the slow addition of powder with stirring over a 30 minute period. The extract was then centrifuged to remove any precipitate and applied to a phenyl sepharose column. After a 50 ml wash with high salt buffer (50 mM Tris-HCl, 1 mM EDTA, 5 mM DTT, 2M NaCl), the protein was eluted with a gradient from high salt to O salt buffer containing 10% (weight/vol) glycerol and further purified through a G75 Sephadex column to remove background nuclease. A one liter culture generates enough integrase activity to perform over a thousand drug inhibition assays. […]
Cleavage of specific sites is assessed as described in Sherman et al., supra, except that the assay buffer was the same as that reported by Chow et al, Science 255:723 (1992). The substrate employed is the same as that described for use in the dumbell assay described in Chow et al., J. Virol. 68:7869 (1994), the disclosure of which is incoroprated herein by reference in its entirety. Essentially, the assay is performed with an oligonucleotide of 31 nucleotides that is self-annealing to form a dumbell shape with a nick therein. This substrate mimics the integrated virus and is specifically recognized by integrase to release 2 fragments. When the substrate is end-labeled with γ^32 P-ATP and T4 polynucleotide kinase, and treated with integrase protein, the product is site-specific cleavage of the substrate to form a very different molecular weight when electrophoresed on a denaturing polyacrylamide gel. This allows the reaction to be more easily quantitated with the phosphorimager. This assay represents the step of the integrase reaction where integrase completes its action. The IC50 value reported in Table 1 is generated by regression analysis of the percent control reaction with integrase at various drug concentrations. Initial screening of the compounds was performed at a constant 10 μM concentration for each test compound. Those with activity at 10 μM, were then used to identify IC50 values.
The other assay used consisted of the single 20 mer oligonucleotides corresponding to either the U5 or U3 ends of HIV-1 are end-labeled with ^32 P, annealed with its complement, purified, and used under the same conditions as described above for the endonuclease assay. Reaction products are denatured with formamide, electrophoresed through 20% denaturing polyacrylamide gels and visualized by autoradiography. Both cleavage and ligation activity can be assessed from one gel. To assess the ligation activity alone, "precleaved" substrate that had the -2 cleavage artificially produced by using a radiolabelled 18 mer oligonucleotide was also used for some experiments
Testing as Integrase Inhibitors. Integrase overproduced in E. coli was purified as described above in accordance with Sherman et al, supra, and used in drug inhibition assays. […]

HIV-1 = HIV-1 inhibition assay in magic (magi) cells, β-galactosidase expressing cells counted; format: cell-based, HIV-1 strain HXB2; settings: for IC50: Human immunodeficiency virus 1, MAGI, magic cells, HIV-1, drug pretreatment 4 hours, fixed two days later, read-out: Anti-HIV IC50; for Index TD50/IC50: ratio of toxicity TD50 to anti-HIV IC50
Procedure: as §1
The magi cell assay described by Kimpton et al., supra, was used as described. This assay identifies individual cells infected with HIV-1 by the expression of tat, which transactivates an endogenous copy of the HIV-1 LTR linked to the lac2 reporter gene after integration, inducing β-galactosidase expression when Xgal is added to the cell medium. Any cell with integrated HIV-1 will turn blue. Thus, this assay provides a convenient way to determine the effect of HIV inhibitors at any early step up through the expression of tat, including the inhibition of integration.
The magic cells are plated in twelve-well plates one day prior to infection. The standard assay involves infection with approximately 200 infectious units of HIV-1. This gives an approximately 20 to 1 ratio of signal to background and sufficient numbers of infectious events to quantitate dim effects. The cells are pretreated with drug for 4 hours prior to virus infection, and virus adsorption takes place for 1 hour. The cells are washed with plain medium, and then medium with inhibitor is placed back on the cells. Two days later the cells are fixed after integration with Xgal the indicator reagent for β-galactosidase production. The number of β-galactosidase expressing cells are quantitated by light microscopy.
The results of comparisons of infectious units with or without various concentrations of the bis-benzimididazoles drugs in the magic cell assay are expressed as IC50 values and are compiled in Table 2 above. Note that the best anti-HIV compounds were generally also the best integrase inhibitors.

| Structure (SMILES) | CC50 (in vitro) [µM] | IC50 (HIV-1 integrase) [µM] | IC50 (HIV-1) [µM] | Index TD50/IC50 (HIV-1) |
| --- | --- | --- | --- | --- |
| N=C(N)c1ccc2nc(-c3cccc(-c4nc5ccc(C(=N)N)cc5[nH]4)c3)[nH]c2c1 [S-1] | 40 | 1 |  |  |
| c1cc(-c2nc3cc(C4=NCCN4)ccc3[nH]2)cc(-c2nc3cc(C4=NCCN4)ccc3[nH]2)c1 [S-2] |  | > 10 |  |  |
| CC(C)NC(=N)c1ccc2nc(-c3ccc4c(c3)Cc3cc(-c5nc6ccc(C(=N)NC(C)C)cc6[nH]5)ccc3-4)[nH]c2c1 [S-3] |  | < 10 |  |  |
| CC(C)NC(=N)c1ccc2nc(-c3cnc(-c4nc5ccc(C(=N)NC(C)C)cc5[nH]4)o3)[nH]c2c1 [S-4] |  | < 10 |  |  |
| N=C(N)c1ccc2nc(-c3ccc4oc(-c5nc6ccc(C(=N)N)cc6[nH]5)cc4c3)[nH]c2c1 [S-5] |  | < 10 | 19.8 |  |
| N=C(NC1CCCC1)c1ccc2nc(-c3ccc4oc(-c5nc6ccc(C(=N)NC7CCCC7)cc6[nH]5)cc4c3)[nH]c2c1 [S-6] |  | 1.4 |  |  |
| Cn1c(-c2nc3ccc(C(=N)N)cc3[nH]2)ccc1-c1nc2ccc(C(=N)N)cc2[nH]1 [S-7] | 90.3 | 0.85 |  |  |
| N=C(N)c1ccc2nc(-c3ccc(-c4nc5ccc(C(=N)N)cc5[nH]4)[nH]3)[nH]c2c1 [S-8] |  | 0.5 |  |  |
| c1cc2[nH]c(-c3ccc(-c4nc5cc(C6=NCCN6)ccc5[nH]4)[nH]3)nc2cc1C1=NCCN1 [S-9] | 213 | > 10 |  |  |
| c1cnc(-c2ccc3nc(-c4ccc(-c5nc6ccc(-c7ncccn7)cc6[nH]5)[nH]4)[nH]c3c2)nc1 [S-10] |  | < 10 |  |  |
| Cn1c(-c2nc3ccc(C(=N)NC4CCCC4)cc3[nH]2)ccc1-c1nc2ccc(C(=N)NC3CCCC3)cc2[nH]1 [S-11] | 732 | > 10 |  |  |
| CC(C)NC(=N)c1ccc2nc(-c3ccc(-c4nc5ccc(C(=N)NC(C)C)cc5[nH]4)n3C)[nH]c2c1 [S-12] | 289 | < 10 |  |  |
| N=C(NC1CCCC1)c1ccc2nc(-c3ccc(-c4nc5ccc(C(=N)NC6CCCC6)cc5[nH]4)[nH]3)[nH]c2c1 [S-13] | 78.2 | < 5 |  |  |
| N=C(N)c1ccc2nc(-c3ccc(-c4nc5ccc(C(=N)N)cc5[nH]4)o3)[nH]c2c1 [S-14] | 81.5 | 0.9 | 26.7 | 3.05 |
| c1cc2nc(-c3ccc(-c4nc5ccc(C6=NCCN6)cc5[nH]4)o3)[nH]c2cc1C1=NCCN1 [S-15] | 41.9 | 0.6 | 8.01 | 5.23 |
| CC(C)NC(=N)c1ccc2nc(-c3ccc(-c4nc5ccc(C(=N)NC(C)C)cc5[nH]4)o3)[nH]c2c1 [S-16] | 238 | < 10 | 1.39 | 170.88 |
